Results on eleven compounds are retold here after ChEMBL document CHEMBL1201862, “PubChem BioAssay data set” (2004).

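These data come from cells grown in 96-well plates and exposed to compound for 48 hours at five concentrations. GI50 = concentration required for 50% inhibition of growth.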 Calls of active or inactive are those of the source. Cut-off read from the data, not from the text of the source: active = GI50 up to about 1.1 µM and inactive = higher.

Among the test systems are KM12; 786-0; UO-31; OVCAR-4; K562; EKVX; SK-MEL-2; HT-29; HOP-92; HCC 2998; COLO 205; NCI/ADR-RES; HOP-62; MOLT-4; NCI-H460; BT-549; NCI-H522; SF-539; HL-60; LOX IMVI.
Common to all, as to assay: NCI-60 cell line screen, 48 h

Take `CCCCC/C=C1\CC(CO)(COC(=O)CC(C(C)C)C(C)C)OC1=O` (configuration not stated): the GI50 in the test with KM12 was 11.4 µM (inactive); in the test with 786-0, 12.1 µM (inactive); with UO-31, 13.7 µM (inactive); in the test on OVCAR-4 it was 30 µM (inactive); in the test with K562, 6.84 µM (inactive); in the test on EKVX, 13.7 µM (inactive). Also, the GI50 in the test with SK-MEL-2 is 20.3 µM (inactive); in the test on HT-29, 19.9 µM (inactive); with HOP-92, 3.66 µM (inactive); with HCC 2998, 15.4 µM (inactive); with COLO 205, 3.04 µM (inactive); with NCI/ADR-RES, 20.3 µM (inactive). The GI50 in the test on HOP-62 is 6 µM (inactive); in the test on MOLT-4, 15.2 µM (inactive); in the test with NCI-H460 it was 16.4 µM (inactive); in the test on BT-549, 16.4 µM (inactive); with NCI-H522 it was 17.8 µM (inactive).

For the compound `N#CC(C#N)=C1c2ccccc2C(=NN)c2ccccc21`, the GI50 in the test on KM12 is > 100 µM (inactive); with 786-0, > 54.8 µM (inactive); in the test on UO-31, > 100 µM (inactive); in the test with SF-539 it was > 56.1 µM (inactive); in the test on K562, > 100 µM (inactive); in the test on SK-MEL-2 it was > 100 µM (inactive). In addition, the GI50 is > 100 µM (inactive) in the test with HT-29; > 100 µM (inactive) with HOP-92; > 100 µM (inactive) in the test with HCC 2998; > 100 µM (inactive) in the test on COLO 205; > 100 µM (inactive) in the test with NCI/ADR-RES; 10.6 µM (inactive) with HOP-62. Besides, the GI50 is > 100 µM (inactive) in the test on MOLT-4, > 100 µM (inactive) in the test with BT-549 and 3.58 µM (inactive) in the test on NCI-H522.

Take `C1=N\c2ccc(cc2)/N=C\c2ccc(cc2)OCc2cccc(n2)COc2ccc/1cc2`: the GI50 with KM12, in the test on 786-0, in the test on UO-31, in the test with OVCAR-4, in the test on SF-539 and with K562 was > 100 µM (inactive) throughout. Further, the GI50 with EKVX, with SK-MEL-2, in the test with HT-29, with HOP-92, in the test with COLO 205 and with HL-60 was > 100 µM (inactive) each time. For the same compound, the GI50 with NCI/ADR-RES, in the test with HOP-62, in the test on MOLT-4, with NCI-H460, with BT-549 and with NCI-H522 was > 100 µM (inactive) throughout.

Regarding `CC(C)(C)c1cc(COc2cc(COc3ccc(-c4c5c(nc6c4CCc4ccc(-c7c8ccccc8nc8ccccc78)cc4-6)-c4cc(-c6c7ccccc7nc7ccccc67)ccc4CC5)cc3)cc(OCc3cc(C(C)(C)C)cc(C(C)(C)C)c3)c2)cc(C(C)(C)C)c1`, the GI50 in the test on KM12, in the test with 786-0, in the test with UO-31, with OVCAR-4, with K562 and in the test on EKVX was > 100 µM (inactive) each time. In addition, the GI50 was > 100 µM (inactive) with SK-MEL-2; > 100 µM (inactive) in the test with HOP-92; 80.5 µM (inactive) in the test on HCC 2998; > 100 µM (inactive) with COLO 205; > 100 µM (inactive) with NCI/ADR-RES; > 100 µM (inactive) with HOP-62. Besides, the GI50 with NCI-H460, in the test with BT-549 and in the test with NCI-H522 was > 100 µM (inactive) in each case.

For the compound `CC(NC(=O)C(CC(=O)OCc1ccccc1)NC(=O)OCc1ccccc1)c1ccccc1` (configuration not stated), the GI50 in the test with KM12 is > 100 µM (inactive); in the test on 786-0 it was 49.2 µM (inactive); with UO-31 it was > 100 µM (inactive); in the test with SF-539, 64.3 µM (inactive); with K562 it was > 100 µM (inactive); in the test with EKVX it was > 100 µM (inactive). Besides, the GI50 with SK-MEL-2 was > 100 µM (inactive); in the test on HT-29, > 100 µM (inactive); in the test with HCC 2998, > 100 µM (inactive); in the test with COLO 205, > 100 µM (inactive); in the test with NCI/ADR-RES, > 100 µM (inactive); with HOP-62, 49.2 µM (inactive). The GI50 was > 100 µM (inactive) in the test with MOLT-4, > 100 µM (inactive) in the test with NCI-H460, > 100 µM (inactive) in the test on BT-549 and 37.4 µM (inactive) in the test on NCI-H522.

`C[C@H](NC(=O)c1ccc(CNC(=O)/C=C/c2cccc(Oc3ccccc3)c2)cc1)c1ccccc1`: the GI50 is > 100 µM (inactive) in the test with KM12; 36.5 µM (inactive) with 786-0; 46.1 µM (inactive) in the test on UO-31; 83.2 µM (inactive) with OVCAR-4; 27 µM (inactive) with SF-539; > 100 µM (inactive) in the test on K562. For the same compound, the GI50 with EKVX, in the test with SK-MEL-2, with HT-29, in the test on HOP-92, with HCC 2998 and in the test with COLO 205 was > 100 µM (inactive) throughout. The GI50 in the test on NCI/ADR-RES was > 100 µM (inactive); in the test on HOP-62 it was 36.9 µM (inactive); in the test on MOLT-4, 93.3 µM (inactive); in the test with NCI-H460, > 100 µM (inactive); in the test on BT-549, > 100 µM (inactive); in the test on LOX IMVI it was > 100 µM (inactive). Further, in the test with NCI-H522, the GI50 was > 100 µM (inactive).

With `CCN(CC)/N=C\c1c2ccccc2cc2ccccc12`, the GI50 with KM12 is 30.8 µM (inactive); in the test on 786-0 it was 44.2 µM (inactive); in the test with UO-31, 48.8 µM (inactive); in the test on OVCAR-4 it was 54.3 µM (inactive); with SF-539, > 100 µM (inactive); with K562, 44.9 µM (inactive). The GI50 in the test with EKVX is 38.4 µM (inactive); with SK-MEL-2 it was 27.9 µM (inactive); in the test with HT-29 it was 25 µM (inactive); in the test on HOP-92 it was 24.4 µM (inactive); with COLO 205, 23.5 µM (inactive); in the test with HL-60 it was 31.7 µM (inactive). Further, the GI50 with NCI/ADR-RES is 79.4 µM (inactive); in the test on MOLT-4 it was 21 µM (inactive); in the test on NCI-H460, 30.7 µM (inactive); with BT-549, 84.7 µM (inactive); in the test with NCI-H522, 21 µM (inactive).

Consider `NC(CSC1c2ccccc2-c2ccccc21)C(=O)O` (configuration not stated), for which the GI50 in the test with KM12, in the test with 786-0, with UO-31, in the test on OVCAR-4, with SF-539 and in the test on K562 was > 100 µM (inactive) throughout. Moreover, the GI50 in the test with EKVX, in the test with SK-MEL-2, in the test on HT-29, in the test with HOP-92, in the test on COLO 205 and in the test on HL-60 was > 100 µM (inactive) each time. Besides, the GI50 with NCI/ADR-RES, in the test on HOP-62, with MOLT-4, in the test with NCI-H460, in the test on BT-549 and in the test with LOX IMVI was > 100 µM (inactive) each time.

Regarding `Cc1c(CCCl)c(=O)n2c([nH]c3ccccc32)c1C#N`, the GI50 is 1.75 µM (inactive) with KM12; 1.51 µM (inactive) with 786-0; 1.91 µM (inactive) in the test with UO-31; 1.77 µM (inactive) in the test on OVCAR-4; 1.48 µM (inactive) in the test with SF-539; 1.34 µM (inactive) in the test with K562. The GI50 in the test with EKVX was 1.84 µM (inactive); in the test on SK-MEL-2, 2.79 µM (inactive); in the test with HT-29, 1.6 µM (inactive); in the test on HOP-92, 1.5 µM (inactive); in the test on COLO 205 it was 0.148 µM (active); in the test on HL-60, 1.55 µM (inactive). The GI50 in the test on NCI/ADR-RES was 1.27 µM (inactive); with HOP-62, 1.82 µM (inactive); in the test with MOLT-4 it was 0.237 µM (active); in the test on NCI-H460 it was 1.72 µM (inactive); in the test with BT-549, 1.91 µM (inactive); with LOX IMVI, 0.619 µM (active).

For `O=C(Cc1nc2ccc(C(=O)c3ccccc3)cc2nc1O)C(=O)Nc1ccc(Br)cc1`, the GI50 was 34.8 µM (inactive) in the test on KM12; > 100 µM (inactive) with 786-0; 57.7 µM (inactive) in the test with UO-31; 44.4 µM (inactive) with OVCAR-4; > 100 µM (inactive) in the test with SF-539; 49.2 µM (inactive) in the test with K562. For the same compound, the GI50 in the test on EKVX is > 100 µM (inactive); with SK-MEL-2, > 100 µM (inactive); in the test on HT-29, > 100 µM (inactive); in the test on HOP-92 it was 71 µM (inactive); in the test with HL-60 it was 69.7 µM (inactive); in the test on NCI/ADR-RES, > 100 µM (inactive). For the same compound, the GI50 with HOP-62 was > 100 µM (inactive); in the test with NCI-H460, > 100 µM (inactive); with BT-549 it was > 100 µM (inactive); in the test on LOX IMVI it was 79.4 µM (inactive); with NCI-H522, 48.9 µM (inactive).

On to `CN(C)/C=N/CCN1CCOCC1`, for which the GI50 with 786-0, with UO-31, in the test with OVCAR-4, with SF-539, with K562 and in the test with EKVX was > 100 µM (inactive) each time. In addition, the GI50 in the test on SK-MEL-2, with HT-29, with HOP-92, in the test on COLO 205, in the test with HL-60 and in the test on NCI/ADR-RES was > 100 µM (inactive) throughout. In addition, the GI50 in the test with HOP-62, with MOLT-4, with BT-549, with LOX IMVI and in the test with NCI-H522 was > 100 µM (inactive) in each case.
